Where “and” joins values, the source holds several entries; their conditions need not be identical. Equal values may be shown once. Inconclusive results and toxic doses are left out. Rule for the calls: active = survival T/C of 150% or more; inactive = T/C below 125% in these data.
Tested on: P388 leukemia ip, CD2F1 mice, survival T/C
Experiment: NCI In Vivo Anticancer Drug Screen. Data for tumor model P388 Leukemia (intraperitoneal) in CD2F1 (CDF1) mice
Settings: endpoint: median survival time, higher = longer survival
Outline: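 Mice carrying the transplanted tumor received test compound or vehicle. Survival was recorded in each group, and the value is the treated-group measurement divided by that of the vehicle-treated control group.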

[1] = dose: 60.0 mg/kg/injection, schedule: Q01DX005 (ip), vehicle: saline with Tween-80
[2] = dose: 50.0 mg/kg/injection, schedule: Q01DX009 (ip), vehicle: Klucel (hydroxypropylcellulose) (HPC)
[3] = dose: 50.0 mg/kg/injection, schedule: Q01DX005 (ip), vehicle: Klucel (hydroxypropylcellulose) (HPC)
[4] = dose: 100.0 mg/kg/injection, schedule: Q01DX005 (ip), vehicle: Klucel (hydroxypropylcellulose) (HPC)
[5] = dose: 200.0 mg/kg/injection, schedule: Q01DX005 (ip), vehicle: Klucel (hydroxypropylcellulose) (HPC)
[6] = dose: 50.0 mg/kg/injection, schedule: Q01DX009 (ip), vehicle: saline
[7] = dose: 100.0 mg/kg/injection, schedule: Q01DX009 (ip), vehicle: saline
[8] = dose: 200.0 mg/kg/injection, schedule: Q01DX009 (ip), vehicle: saline
[9] = dose: 12.5 mg/kg/injection, schedule: Q01DX005 (ip), vehicle: saline with Tween-80
[10] = dose: 25.0 mg/kg/injection, schedule: Q01DX005 (ip), vehicle: saline with Tween-80
[11] = dose: 50.0 mg/kg/injection, schedule: Q01DX005 (ip), vehicle: saline with Tween-80
[12] = dose: 100.0 mg/kg/injection, schedule: Q01DX005 (ip), vehicle: saline with Tween-80
[13] = dose: 50.0 mg/kg/injection, schedule: Q01DX009 (ip), vehicle: saline with Tween-80
[14] = dose: 100.0 mg/kg/injection, schedule: Q01DX009 (ip), vehicle: saline with Tween-80
[15] = dose: 25.0 mg/kg/injection, schedule: Q01DX009 (ip), vehicle: saline with Tween-80
[16] = dose: 200.0 mg/kg/injection, schedule: Q01DX009 (ip), vehicle: saline with Tween-80
[17] = dose: 200.0 mg/kg/injection, schedule: Q01DX005 (ip), vehicle: saline with Tween-80

Measured: T/C

O=c1nnc(O)c2n(O)cccc1-2
inactive: [1] 100 % of control | dose: 120.0 mg/kg/injection, schedule: Q01DX005 (ip), vehicle: saline with Tween-80 105 % of control | dose: 240.0 mg/kg/injection, schedule: Q01DX005 (ip), vehicle: saline with Tween-80 97 % of control

CC(=O)O[C@H]1CC[C@@]2(C)C(CC[C@]3(C)C2CC=C2[C@@H]4CC(C)(C)CC[C@]4(C(=O)NCCN(C)C)CCC23C)C1(C)C (stereo partly specified)
inactive: dose: 7.5 mg/kg/injection, schedule: Q01DX005 (ip), vehicle: saline with Tween-80 99 % of control | dose: 15.0 mg/kg/injection, schedule: Q01DX005 (ip), vehicle: saline with Tween-80 100 % of control | dose: 30.0 mg/kg/injection, schedule: Q01DX005 (ip), vehicle: saline with Tween-80 99 % of control | [1] 103 % of control

N#CC(=S)N(C(=O)c1ccc(Cl)cc1)c1ccccc1Cl
inactive: dose: 60.0 mg/kg/injection, schedule: Q01DX005 (ip), vehicle: Klucel + Tween-80 103 % of control | dose: 120.0 mg/kg/injection, schedule: Q01DX005 (ip), vehicle: Klucel + Tween-80 112 % of control

Cn1c(=O)c2c(=S)sc(=S)[nH]c2n(C)c1=O
inactive: dose: 25.0 mg/kg/injection, schedule: Q04DX002 (ip), vehicle: saline with Tween-80 106 % of control | dose: 50.0 mg/kg/injection, schedule: Q04DX002 (ip), vehicle: saline with Tween-80 106 % of control | dose: 100.0 mg/kg/injection, schedule: Q04DX002 (ip), vehicle: saline with Tween-80 106 % of control

COc1cc2c(cc1OC)C(CC1CCN(C)CC1)NCC2 (stereo unspecified)
inactive: dose: 50.0 mg/kg/injection, schedule: Q01DX005 (ip), vehicle: saline 106 % of control | dose: 100.0 mg/kg/injection, schedule: Q01DX005 (ip), vehicle: saline 103 % of control | dose: 200.0 mg/kg/injection, schedule: Q01DX005 (ip), vehicle: saline 103 % of control

Cc1ccccc1C1C(C#N)C(=O)NC(=O)C1C#N (stereo unspecified)
inactive: [2] 102 % of control | dose: 100.0 mg/kg/injection, schedule: Q01DX009 (ip), vehicle: Klucel (hydroxypropylcellulose) (HPC) 106 % of control | dose: 200.0 mg/kg/injection, schedule: Q01DX009 (ip), vehicle: Klucel (hydroxypropylcellulose) (HPC) 110 % of control

Cc1ccc(S(=O)(=O)NN=c2c3ccccc3c3nc4ccccc4nc3c3ccccc23)cc1
inactive: [3] 90 % of control | [4] 98 % of control

CSc1cccc(NC(=O)Nc2nc3c(C)cccc3s2)c1
inactive: [3] 96 % of control | [4] 95 % of control | [5] 90 % of control

CC(=O)OC(=O)C(NC(=O)C(N)CC(C)C)C(C)C (stereo unspecified)
inactive: [6] 103 % of control | [7] 94 % of control | [8] 100 % of control

COCCCNCC(=O)Nc1ccc(S(=O)(=O)c2ccc(NC(=O)CNCCCOC)cc2)cc1
inactive: dose: 50.0 mg/kg/injection, schedule: Q01DX005 (ip), vehicle: acid diluted with saline 107 % of control | dose: 100.0 mg/kg/injection, schedule: Q01DX005 (ip), vehicle: acid diluted with saline 104 % of control | dose: 200.0 mg/kg/injection, schedule: Q01DX005 (ip), vehicle: acid diluted with saline 112 % of control

O=C1C(=O)c2cccc([N+](=O)[O-])c2-c2ccccc21
inactive: [9] 104 % of control and 106 % of control | [10] 101 % of control and 115 % of control | [11] 107 % of control and 118 % of control | [12] 104 % of control (2×) and 95 % of control

Cc1cnc(C)c2ccccc12
inactive: [13] 109 % of control | [14] 117 % of control

O=c1[nH]cccc1O
active: dose: 512.0 mg/kg/injection, schedule: Q01DX009 (ip), vehicle: saline with Tween-80 153 % of control
inactive: dose: 16.0 mg/kg/injection, schedule: Q01DX009 (ip), vehicle: saline with Tween-80 115 % of control | dose: 32.0 mg/kg/injection, schedule: Q01DX009 (ip), vehicle: saline with Tween-80 122 % of control | [2] 109 % of control and 113 % of control | [6] 105 % of control and 110 % of control | dose: 64.0 mg/kg/injection, schedule: Q01DX009 (ip), vehicle: saline with Tween-80 112 % of control | [7] 100 % of control and 111 % of control | [8] 112 % of control and 115 % of control | dose: 400.0 mg/kg/injection, schedule: Q01DX009 (ip), vehicle: Klucel (hydroxypropylcellulose) (HPC) 98 % of control

Cc1ccc(CO)c2ccccc12
inactive: [15] 96 % of control | [13] 107 % of control | [14] 96 % of control | [16] 96 % of control

CC(C)C(NC(=O)OC(C)(C)C)C(=O)NC(CC(=O)OCc1ccccc1)C(=O)OCc1ccccc1 (stereo unspecified)
inactive: [12] 88 % of control | [17] 91 % of control | dose: 400.0 mg/kg/injection, schedule: Q01DX005 (ip), vehicle: saline with Tween-80 88 % of control

COc1cccc2c1C(=O)c1c(O)c3c(c(O)c1C2=O)CC(=O)CC3OC1CC(NC(=O)C(F)(F)F)C(O)C(C)O1 (stereo unspecified)
inactive: dose: 1.56 mg/kg/injection, schedule: Q01DX009 (ip), vehicle: other 104 % of control | dose: 3.13 mg/kg/injection, schedule: Q01DX009 (ip), vehicle: other 102 % of control | dose: 6.25 mg/kg/injection, schedule: Q01DX009 (ip), vehicle: other 98 % of control | dose: 12.5 mg/kg/injection, schedule: Q01DX009 (ip), vehicle: other 90 % of control

COc1ccc(NS(=O)(=O)c2ccc(NC(=O)NCCCl)cc2)nn1
inactive: dose: 25.0 mg/kg/injection, schedule: Q01DX005 (ip), vehicle: Klucel (hydroxypropylcellulose) (HPC) 98 % of control | [3] 98 % of control | [5] 98 % of control

CNC(=O)OCC1=C(Sc2ccccc2)C(=O)C(OC)=C(OC)C1=O
inactive: [9] 106 % of control | [10] 108 % of control | [11] 103 % of control and 110 % of control

C1CSC(CCC2SCCCS2)SC1
inactive: [13] 92 % of control | [14] 90 % of control | [16] 87 % of control

Cc1ccc(S(=O)(=O)N/N=C/c2c(Cl)n(C(=O)c3ccccc3C)c3ccccc23)cc1
inactive: dose: 100.0 mg/kg/injection, schedule: Q01DX001 (ip), vehicle: Klucel (hydroxypropylcellulose) (HPC) 97 % of control | dose: 200.0 mg/kg/injection, schedule: Q01DX001 (ip), vehicle: Klucel (hydroxypropylcellulose) (HPC) 91 % of control | dose: 400.0 mg/kg/injection, schedule: Q01DX001 (ip), vehicle: Klucel (hydroxypropylcellulose) (HPC) 89 % of control

CCN(CC)CCNc1ccc(COC(=O)OC)c2oc3ccccc3c(=O)c12
inactive: dose: 6.25 mg/kg/injection, schedule: Q01DX005 (ip), vehicle: saline with Tween-80 115 % of control | [9] 111 % of control | [10] 97 % of control

NC(N)=O
inactive: dose: 12.5 mg/kg/injection, schedule: Q01DX009 (ip), vehicle: saline 100 % of control | dose: 25.0 mg/kg/injection, schedule: Q01DX009 (ip), vehicle: saline 105 % of control | [6] 105 % of control | [7] 102 % of control | [8] 100 % of control | dose: 400.0 mg/kg/injection, schedule: Q01DX009 (ip), vehicle: saline 98 % of control

C/C=C/C(=O)Oc1ccccc1/C=C/C(=O)CCCCCC
inactive: [11] 92 % of control | [12] 98 % of control | [17] 100 % of control

CC(NS(=O)(=O)N1CCOC1=O)c1ccccc1 (stereo unspecified)
inactive: dose: 60.0 mg/kg/injection, schedule: Q01DX005 (ip), vehicle: Klucel (hydroxypropylcellulose) (HPC) 104 % of control | dose: 120.0 mg/kg/injection, schedule: Q01DX005 (ip), vehicle: Klucel (hydroxypropylcellulose) (HPC) 107 % of control | dose: 240.0 mg/kg/injection, schedule: Q01DX005 (ip), vehicle: Klucel (hydroxypropylcellulose) (HPC) 104 % of control

CC(C)c1ccc(O)c(O)c1
inactive: [15] 113 % of control | [13] 113 % of control | [14] 111 % of control

Cc1[nH]nc(C(N)=O)c1N=NN(C)C
inactive: dose: 12.5 mg/kg/injection, schedule: Q01DX009 (ip), vehicle: saline with Tween-80 113 % of control | dose: 50.0 mg/kg/injection, schedule: Q04DX003 (ip), vehicle: saline with Tween-80 122 % of control
active: [13] 204 % of control and 209 % of control | dose: 100.0 mg/kg/injection, schedule: Q04DX003 (ip), vehicle: saline with Tween-80 150 % of control | dose: 132.0 mg/kg/injection, schedule: Q04DX003 (ip), vehicle: saline with Tween-80 159 % of control | dose: 200.0 mg/kg/injection, schedule: Q04DX003 (ip), vehicle: saline with Tween-80 154 % of control
